Data taken from paper PMC6410080 (Viruses, 2019).
Read-outs that look alike come from different tables or passages of the source.

Key:
SFV = test: microbe, parasite or virus in culture; assay type: cell-based, Semliki Forest virus; settings: for % inhibition (SFV screen): 10 µM
DENV-2 = DENV-2 infection assay / secondary screen (E protein staining); assay type: cell-based, dengue virus serotype 2; settings: for % inhibition (DENV-2 screen): 10 µM
SINV = test: microbe, parasite or virus in culture; assay type: cell-based, Sindbis virus; settings: Sindbis virus, HeLa Kyoto, read-out: IC50 SINV
DENV-1 = test: microbe, parasite or virus in culture; assay type: cell-based, dengue virus; settings: Dengue virus, DENV1, Huh-7, read-out: IC50 DENV-1
ZIKV = test: microbe, parasite or virus in culture; assay type: cell-based, Zika virus; settings: Zika virus, Huh-7, read-out: IC50 ZIKV
YF17D = test: organism not typed; assay type: cell-based, yellow fever 17D; settings: Huh-7, read-out: IC50 YF17D
HCV = test: microbe, parasite or virus in culture; assay type: cell-based, hepatitis C virus; settings: Hepatitis C virus, Huh7.5, read-out: IC50 HCV
VSV VLP = test: microbe, parasite or virus in culture; assay type: cell-based, vesicular stomatitis virus; settings: Vesicular stomatitis virus, HeLa Kyoto, 24 h, read-out: IC50 VSV
RABV VLP = test: microbe, parasite or virus in culture; assay type: cell-based, rabies virus; settings: Lyssavirus rabies, HeLa Kyoto, 24 h, read-out: IC50 RABV
H5N1 VLP = test: microbe, parasite or virus in culture; assay type: cell-based, influenza H5N1; settings: Influenza A virus, H5N1, HeLa Kyoto, 48 h, read-out: IC50 H5N1
EBOV VLP = test: microbe, parasite or virus in culture; assay type: cell-based, Ebola virus; settings: Zaire ebolavirus, HeLa Kyoto, 48 h, read-out: IC50 EBOV
HIV-1 = test: microbe, parasite or virus in culture; assay type: cell-based, human immunodeficiency virus type 1; settings: Human immunodeficiency virus 1, 24 h, read-out: IC50 HIV
HSV-1 = test: microbe, parasite or virus in culture; assay type: cell-based, herpes simplex virus 1; settings: Human alphaherpesvirus 1, Vero, 8 h, read-out: IC50 HSV (Vero)
[1] = system: Renilla luciferase expression (protein synthesis); assay type: cell-based
viruses/VLPs tested = assay type: cell-based
HeLa Kyoto cells [2] = settings: human
Huh7 cells [3] = settings: human
in vitro [4] = settings: human, % viability (SFV screen)
in vitro [5] = settings: human
HeLa Kyoto cells [6] = settings: 10 µM
Huh7 cells [7] = settings: 10 µM
[8] = Huh7, 24 h, compared to DMSO-treated controls

## CNc1ccc2oc(C[C@H]3O[C@@]4(CC[C@H]3C)O[C@H]([C@H](C)C(=O)c3ccc[nH]3)[C@H](C)C[C@H]4C)nc2c1C(=O)O [Calcimycin]
SFV; Semliki Forest virus, HeLa Kyoto, read-out: IC50 SFV (7 h)
  IC50: 0.6 µM
SFV; Semliki Forest virus, M-HeLa, 7 h, read-out: % inhibition (SFV screen)
  inhibition at 10 µM: 91.4%
DENV-2; Dengue virus, DENV2, Huh-7, 24 h, read-out: % inhibition (DENV-2 screen)
  inhibition at 10 µM: 100%
DENV-2; Dengue virus, DENV2, Huh-7, 24 h, read-out: IC50 DENV-2 (7 + 17 h)
  IC50: 4.4 µM
DENV-2; Dengue virus, DENV2, Huh-7, 24 h, read-out: IC50 DENV-2 (24 h)
  IC50: 0.38 µM
SINV
  IC50: 2.1 µM
DENV-1
  IC50: 4.3 µM
ZIKV
  IC50: 17.1 µM
YF17D
  IC50: 0.4 µM
HCV
  IC50: 1.45 µM
VSV VLP
  IC50: 0.1 µM
RABV VLP
  IC50: 0.7 µM
H5N1 VLP
  IC50: 0.4 µM
EBOV VLP
  IC50: 0.5 µM
HIV-1
  IC50: 2.5 µM
HSV-1
  IC50: < 0.5 µM
[1]
  Decrease of Renilla signal (protein synthesis): more than 50%
  Inhibition of protein synthesis at lower concentrations: lose their inhibitory activity on protein synthesis
viruses/VLPs tested
  Viruses Inhibited: All tested
HeLa Kyoto cells [2]
  TC50 SFV (7 h): 4.1 µM
  TC50 SFV (7h): 4100 µM
Huh7 cells [3]
  TC50 DENV-2 (7 + 17 h): >50 µM
  TC50 DENV-2 (24 h): 6.7 µM
In vitro [4]
  viability at 10 µM: 34.4%
In vitro [5]
  viability at 10 µM: 40%

## COc1ccc(C[C@@H](C)NC[C@H](O)c2ccc(O)c(NC=O)c2)cc1.COc1ccc(C[C@@H](C)NC[C@H](O)c2ccc(O)c(NC=O)c2)cc1.O=C(O)/C=C/C(=O)O [Formoterol fumarate]
SFV
  % inhibition (SFV screen): 86.74%
DENV-2
  % inhibition (DENV-2 screen): -41.42%
HeLa Kyoto cells [6]; HeLa Kyoto, 7 h, compared to DMSO-treated controls, LOPAC and Prestwick samples listed separately
  % viability (SFV screen): 97.47%
Huh7 cells [7]; [8]
  % viability (DENV-2 screen): 102.07%

## Cl.Cl.Fc1ccc(C(OCCN2CCN(CCCc3ccccc3)CC2)c2ccc(F)cc2)cc1 [GBR 12909 dihydrochloride]
SFV
  % inhibition (SFV screen): 75.39%
DENV-2; Huh7, MOI 1, 24 h, compared to DMSO-treated controls
  % inhibition (DENV-2 screen): 83.87%
HeLa Kyoto cells [6]
  % viability (SFV screen): 90.30%
Huh7 cells [7]
  % viability (DENV-2 screen): 38.91%

## Cl.Cn1c(CCCC(=O)O)nc2cc(N(CCCl)CCCl)ccc21 [Bendamustine hydrochloride]
SFV
  % inhibition (SFV screen): 104.91%
DENV-2
  % inhibition (DENV-2 screen): 56.91%
HeLa Kyoto cells [6]
  % viability (SFV screen): 76.50%
Huh7 cells [7]; [8]
  % viability (DENV-2 screen): 85.62%

## C=CCN1CC[C@]23c4c5ccc(O)c4O[C@@H]2/C(=N/N=C2\CC[C@@]4(O)C6Cc7ccc(O)c8c7[C@@]4(CCN6CC=C)[C@@H]2O8)CC[C@@]3(O)C1C5.Cl.Cl [Naloxonazine dihydrochloride]
SFV
  % inhibition (SFV screen): 70.80%
DENV-2
  % inhibition (DENV-2 screen): 16.23%
HeLa Kyoto cells [6]
  % viability (SFV screen): 87.36%
Huh7 cells [7]
  % viability (DENV-2 screen): 111.66%
